Source: patent publication US6340698B1, “Antifungal solutions” (priority 1999, dated 2002)

Columns and labels:
Assay type in all cases: physicochemical
[1] = Solubility in strong acids (glacial acetic acid, concentrated hydrochloric acid)
Text: For example, 1 g of free itraconazole can be dissolved in about 3 g of glacial acetic acid or about 3 to 4 g of concentrated hydrochloric acid (i.e. 36-38% HCl in water).

Solubility in water = assay: Solubility in water
[2] = Dilution with water of a solution in strong acid; conditions: solution in strong acid diluted with water to weaken the acid
Protocol: However, strongly acidic solutions are unsuitable for oral administration, and if a solution of itraconazole or saperconazole in strong acid is diluted with water to weaken the acid, the itraconazole or saperconazole precipitates.

CCC(C)n1ncn(-c2ccc(N3CCN(c4ccc(OCC5COC(Cn6cncn6)(c6ccc(Cl)cc6Cl)O5)cc4)CC3)cc2)c1=O (centres unmarked) [itraconazole, Itraconazole]
solubility in strong acids [1]: soluble in strong acids
solubility in water (Solubility in water): practically insoluble in water

CCC(C)n1ncn(-c2ccc(N3CCN(c4ccc(OC[C@H]5CO[C@](Cn6cncn6)(c6ccc(F)cc6F)O5)cc4)CC3)cc2)c1=O (some centres unmarked) [saperconazole]
solubility in strong acids [1]: soluble in strong acids
solubility in water (Solubility in water): practically insoluble in water
behaviour when solution in strong acid is diluted with water [2]: precipitates
